Measurements from US8513232B2, “Substituted spirocyclic piperidine derivatives as histamine-3 (H3) receptor ligands” (Cephalon, Inc., priority 2008, dated 2013).
Like-named read-outs stand apart in the source and are kept apart here.

How the values were obtained:
human H3 receptor = target: T1, human H3 receptor (Homo sapiens, UniProt Q9Y5N1); test: Human H3 radioligand binding ([3H]-N-alpha-methylhistamine, SPA)
T1 construct: expressed in transfected cells
Procedure, shortened: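 SPA competition binding on membranes from CHO cells stably expressing human H3 receptor (10 μg protein/well) with ~1 nM [3H]-N-alpha-methylhistamine and compound at 0.01 nM-30 μM. Incubation 4 h at room temperature in 50 mM Tris-HCl pH 7.4, 5 mM MgCl2, 0.1% BSA; non-specific binding defined with 10 μM clobenpropit.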

[1] = target: T2, rat histamine H3 receptor (Rattus norvegicus, UniProt Q9QYN8); test: Rat H3 radioligand binding ([3H]-N-alpha-methylhistamine, SPA)
T2 construct: encoding the entire 445-amino-acid rat histamine H3 receptor; expressed in transfected cells; membrane preparation
Procedure, shortened: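 Membranes from CHO-A3 cells stably expressing full-length rat H3 receptor (10 μg protein/well) incubated 4 h at room temperature, protected from light, with ~1 nM [3H]-N-alpha-methylhistamine and compound (0.01 nM-30 μM) in 50 mM Tris HCl pH 7.4, 5 mM MgCl2, 0.1% BSA. Binding read by SPA; 10 μM clobenpropit defined non-specific binding.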

[2] = Human H3 binding, Table B, Examples 136-362, read-out: hum H3 binding Ki
[3] = Rat H3 binding, Table B, Examples 136-362, read-out: rat H3 binding Ki
[4] = Table A, human H3 binding, read-out: Human Ki
[5] = Table A, rat H3 binding, read-out: Rat Ki
[6] = human H3 binding, Table D, read-out: Human H3 Ki
[7] = rat H3 binding, Table D, read-out: Rat H3 Ki
[8] = Table C, human H3 binding, read-out: Human H3 Ki
[9] = Table C, rat H3 binding, read-out: Rat H3 Ki

T1 sequence (Q9Y5N1 whole entry): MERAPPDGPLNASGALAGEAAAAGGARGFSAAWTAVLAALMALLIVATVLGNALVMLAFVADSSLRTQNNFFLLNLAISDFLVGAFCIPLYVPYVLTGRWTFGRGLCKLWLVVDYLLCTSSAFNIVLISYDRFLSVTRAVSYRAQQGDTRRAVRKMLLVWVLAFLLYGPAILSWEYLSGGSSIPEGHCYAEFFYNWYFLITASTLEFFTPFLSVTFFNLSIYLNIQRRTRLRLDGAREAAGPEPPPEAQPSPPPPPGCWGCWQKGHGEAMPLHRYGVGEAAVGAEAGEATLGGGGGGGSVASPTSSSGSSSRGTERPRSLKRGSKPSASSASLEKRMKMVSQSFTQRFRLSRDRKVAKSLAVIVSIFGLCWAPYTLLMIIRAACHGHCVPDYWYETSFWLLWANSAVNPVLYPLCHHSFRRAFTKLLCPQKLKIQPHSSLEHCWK
T2 sequence (Q9QYN8 whole entry): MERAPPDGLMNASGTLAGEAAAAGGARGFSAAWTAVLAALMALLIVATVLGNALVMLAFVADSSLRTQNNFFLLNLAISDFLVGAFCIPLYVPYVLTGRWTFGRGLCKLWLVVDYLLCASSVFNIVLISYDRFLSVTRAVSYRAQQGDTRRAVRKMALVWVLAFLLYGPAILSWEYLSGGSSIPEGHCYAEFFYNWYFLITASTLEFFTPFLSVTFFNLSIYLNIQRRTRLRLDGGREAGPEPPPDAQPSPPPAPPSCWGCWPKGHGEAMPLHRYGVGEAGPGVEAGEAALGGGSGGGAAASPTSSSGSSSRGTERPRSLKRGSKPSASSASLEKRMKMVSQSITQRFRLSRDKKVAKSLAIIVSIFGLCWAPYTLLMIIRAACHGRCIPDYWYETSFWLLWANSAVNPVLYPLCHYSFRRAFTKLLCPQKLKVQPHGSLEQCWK

| Ki (human H3 receptor; [2]) | Ki [1, 3] | melting point | Ki (human H3 receptor; [6]) | Ki [1, 7] | Compound | other results |
| --- | --- | --- | --- | --- | --- | --- |
|  |  | 258 to 260 °C |  |  | CS(=O)(=O)c1ccc(N2CCN(c3ccc4c(c3)CCC3(CCN(C5CCC5)CC3)O4)CC2)nc1 [Example 383] | Ki (human H3 receptor; [8]): < 200 nM; Ki [1, 9]: < 200 nM |
| < 200 nM | 200 to 1000 nM | 201 to 203 °C |  |  | O=C(Nc1ccc(Cl)cc1)Nc1ccc2c(c1)COC1(CCN(C3CCC3)CC1)O2 [Example 184] |  |
| < 200 nM | < 200 nM | 194 to 195 °C |  |  | O=C(N[C@@H]1CCOC1)c1ccc(-c2ccc3c(c2)CCC2(CCN(C4CCC4)CC2)O3)cc1 [Example 341] |  |
|  |  | 89 to 92 °C | < 200 nM | < 200 nM | Cc1c(-c2ccc3c(c2)COC2(CCN(C4CCC4)CC2)O3)cn(C(C)C)c(=O)c1C [Example 776] |  |
|  |  | 185 to 187 °C | < 200 nM | < 200 nM | O=C(N[C@H]1CCOC1)c1ccc(-c2ccc3c(c2)COC2(CCN(C4CCC4)CC2)O3)cc1Cl [Example 611] |  |
|  |  | 186 to 188 °C | < 200 nM | < 200 nM | CNC(=O)c1cc(-c2ccc3c(c2)COC2(CCN(C4CCC4)CC2)O3)cs1 [Example 607] |  |
| < 200 nM | < 200 nM | 235 to 237 °C |  |  | O=C(Nc1ccc2c(c1)COC1(CCN(C3CCC3)CC1)O2)c1ccc2[nH]cnc2c1 [Example 326] |  |
| < 200 nM | < 200 nM | 66.8 to 67.5 °C |  |  | COC1CCN(C(=O)c2ccc(-c3ccc4c(c3)CCC3(CCN(C5CCC5)CC3)O4)cc2)CC1 [Example 230] |  |
|  |  | 162 to 163 °C |  |  | C1=C(c2ccc3c(c2)COC2(CCN(C4CCC4)CC2)O3)CCSC1 [Example 466] | Ki (human H3 receptor; read-out: Human H3 Ki): < 200 nM; Ki ([1]; read-out: Rat H3 kI): < 200 nM |
|  |  | 85 to 90 °C |  |  | O=S(=O)(c1ccc(-c2ccc3c(c2)COC2(CCN(C4CCC4)CC2)O3)cc1)N1CCCCC1 [Example 37] | Ki (human H3 receptor; [4]): < 200 nM; Ki [1, 5]: < 200 nM |
| < 200 nM | < 200 nM | 100.4 to 102.2 °C |  |  | O=C(c1ccc(-c2ccc3c(c2)COC2(CCN(C4CCC4)CC2)O3)cc1)N1CCC(O)CC1 [Example 258] |  |
|  |  | 280 to 283 °C |  |  | CC(C)(C)OC(=O)N1CC[C@@H](Oc2ccc3c(c2)CCC2(CCN(C4CCC4)CC2)O3)C1 [Example 442] | Ki (human H3 receptor; [8]): < 200 nM; Ki [1, 9]: < 200 nM |
|  |  | 61 to 63 °C | < 200 nM | < 200 nM | COc1nc(C)ccc1-c1ccc2c(c1)COC1(CCN(C3CCC3)CC1)O2 [Example 746] |  |
|  |  | 79 to 81 °C |  |  | OC(c1ccc(Cl)nc1)c1ccc2c(c1)COC1(CCN(C3CCC3)CC1)O2 (stereo not drawn) [Example 508] | Ki (human H3 receptor; read-out: Human H3 Ki): < 200 nM; Ki ([1]; read-out: Rat H3 kI): < 200 nM |
| < 200 nM | < 200 nM | 53 to 55 °C |  |  | CC(=O)N(c1ccc2c(c1)COC1(CCN(C3CCC3)CC1)O2)c1ccccn1 [Example 253] |  |
|  |  | 164 to 166 °C | < 200 nM | < 200 nM | NC(=O)c1ccc(-c2ccc3c(c2)COC2(CCN(C4CCC4)CC2)O3)cc1Cl [Example 604] |  |
|  |  | 122 to 124 °C | < 200 nM | < 200 nM | COc1cc(C(N)=O)ccc1-c1ccc2c(c1)COC1(CCN(C3CCC3)CC1)O2 [Example 712] |  |
|  |  | 161 to 162 °C | < 200 nM | < 200 nM | O=C(c1ccc(-c2ccc3c(c2)COC2(CCN(C4CCC4)CC2)O3)cc1F)N1CCOCC1 [Example 642] |  |
| < 200 nM | < 200 nM | 78.6 to 80.4 °C |  |  | O=C(NCCO)c1c(F)cc(-c2ccc3c(c2)COC2(CCN(C4CCC4)CC2)O3)cc1F [Example 261] |  |
| < 200 nM | < 200 nM | 47 to 49 °C |  |  | Cc1nn(C)c(C)c1-c1ccc2c(c1)CCC1(CCN(C3CCC3)CC1)O2 [Example 171] |  |
| < 200 nM | < 200 nM | 166 to 168 °C |  |  | O=C(Cc1ccccn1)Nc1ccc2c(c1)COC1(CCN(C3CCC3)CC1)O2 [Example 322] |  |
|  |  | 145 to 147 °C |  |  | COCCNC(=O)c1ccc(-c2ccc3c(c2)COC2(CCN(C4CCC4)CC2)O3)cc1 [Example 26] | Ki (human H3 receptor; [4]): < 200 nM; Ki [1, 5]: < 200 nM |
| < 200 nM | < 200 nM | 65 to 67 °C |  |  | O=C(Nc1ccc2c(c1)CCC1(CCN(C3CCC3)CC1)O2)c1ccncc1 [Example 188] |  |
|  |  | 86 to 88 °C | < 200 nM | < 200 nM | CNC(=O)CCc1ccc2c(c1)COC1(CCN(C3CCC3)CC1)O2 [Example 653] |  |

The remaining lines, values behind:

| Compound | Ki (human H3 receptor; [2]) | Ki [1, 3] | melting point | Ki (human H3 receptor; [6]) | Ki [1, 7] | other results |
| --- | --- | --- | --- | --- | --- | --- |
| O=C1C[C@@H](O)CN1c1ccc2c(c1)COC1(CCN(C3CCC3)CC1)O2 [Example 139] | < 200 nM | < 200 nM | 120 to 122 °C |  |  |  |
| c1cc(-c2ccc3c(c2)COC2(CCN(C4CCC4)CC2)O3)co1 [Example 5] |  |  | 150 to 152 °C |  |  | Ki (human H3 receptor; [4]): < 200 nM; Ki [1, 5]: < 200 nM |
| COc1cc(C)c(-c2ccc3c(c2)CCC2(CCN(C4CCC4)CC2)O3)cn1 [Example 769] |  |  | 127 to 128 °C | < 200 nM | < 200 nM |  |
| COc1ncc(-c2ccc3c(c2)COC2(CCN(C4CCC4)CC2)O3)cc1F [Example 714] |  |  | 175 to 177 °C | < 200 nM | < 200 nM |  |
| COc1ccc(/C=C/c2ccc3c(c2)COC2(CCN(C4CCC4)CC2)O3)cn1 [Example 502] |  |  | 144 to 146 °C |  |  | Ki (human H3 receptor; read-out: Human H3 Ki): < 200 nM; Ki ([1]; read-out: Rat H3 kI): < 200 nM |
| Cc1cc(-c2ccc3c(c2)COC2(CCN(C4CCC4)CC2)O3)cnc1O [Example 609] |  |  | 95.2 to 97 °C | < 200 nM | < 200 nM |  |
| c1cc2c(cc1N1CCC(OCC3CC3)CC1)CCC1(CCN(C3CCC3)CC1)O2 [Example 424] |  |  | 280 to 283 °C |  |  | Ki (human H3 receptor; [8]): < 200 nM; Ki [1, 9]: < 200 nM |
| O=c1ccc(-c2ccc3c(c2)COC2(CCN(C4COC4)CC2)O3)c[nH]1 [Example 718] |  |  | 262 to 264 °C | > 1000 nM | > 1000 nM |  |
| Cc1noc(COc2ccc3c(c2)CCC2(CCN(C4CCC4)CC2)O3)n1 [Example 616] |  |  | 95 to 96 °C | < 200 nM | < 200 nM |  |
| CCS(=O)(=O)c1ccc(-c2ccc3c(c2)COC2(CCN(C4CCC4)CC2)O3)cc1Cl [Example 625] |  |  | 157 to 159 °C | < 200 nM | < 200 nM |  |
| CC(C)(C)N1CCC2(CC1)OCc1cc(-c3ccc(=O)[nH]c3)ccc1O2 [Example 733] |  |  | 241 to 243 °C | < 200 nM | < 200 nM |  |
| N#Cc1cccc(C(=O)Nc2ccc3c(c2)COC2(CCN(C4CCC4)CC2)O3)c1 [Example 153] | < 200 nM | < 200 nM | 212 to 215 °C |  |  |  |
| CS(=O)(=O)N1CCN(c2ccc3c(c2)CCC2(CCN(C4CCC4)CC2)O3)CC1 [Example 375] |  |  | 240 to 242 °C |  |  | Ki (human H3 receptor; [8]): < 200 nM; Ki [1, 9]: < 200 nM |
| COCCN(C)C(=O)c1c(F)cc(-c2ccc3c(c2)CCC2(CCN(C4CCC4)CC2)O3)cc1F [Example 360] | < 200 nM | < 200 nM | 100 to 102 °C |  |  |  |
| COC1(c2ccc3c(c2)COC2(CCN(C4CCC4)CC2)O3)CCC1 [Example 559] |  |  | < 50 °C |  |  | Ki (human H3 receptor; read-out: Human H3 Ki): < 200 nM; Ki ([1]; read-out: Rat H3 kI): < 200 nM |
| Fc1cncc(-c2ccc3c(c2)COC2(CCN(C4CCC4)CC2)O3)c1 [Example 4] |  |  | 140 to 145 °C |  |  | Ki (human H3 receptor; [4]): < 200 nM; Ki [1, 5]: < 200 nM |
| OC(c1ccc2c(c1)COC1(CCN(C3CCC3)CC1)O2)c1nccs1 (stereo not drawn) [Example 664] |  |  | 70 to 72 °C | < 200 nM | < 200 nM |  |
| O=C(NC1CCN(c2ccc3c(c2)COC2(CCN(C4CCC4)CC2)O3)CC1)N1CCCC1 [Example 319] | < 200 nM | < 200 nM | 210.2 to 212.6 °C |  |  |  |
| CN(C)C(=O)N1CCN(c2ccc3c(c2)CCC2(CCN(C4CCC4)C2)O3)CC1 (stereo not drawn) [Example 339] | < 200 nM | < 200 nM | 231 to 233 °C |  |  |  |
| CNC(=O)c1ccc(Oc2ccc3c(c2)CCC2(CCN(C4CCC4)CC2)O3)cc1 [Example 282] | < 200 nM | < 200 nM | 179 to 181 °C |  |  |  |
| COCCN(C)C(=O)c1c(F)cc(-c2ccc3c(c2)COC2(CCN(C4CCC4)CC2)O3)cc1F [Example 359] | < 200 nM | < 200 nM | 78 to 80 °C |  |  |  |
| O=c1ccc(N2CCN(c3ccc4c(c3)CCC3(CCN(C5CCC5)CC3)O4)CC2)n[nH]1 [Example 419] |  |  | 278 to 280 °C |  |  | Ki (human H3 receptor; [8]): < 200 nM; Ki [1, 9]: < 200 nM |
| OC(c1ccc2c(c1)COC1(CCN(C3CCC3)CC1)O2)c1cscn1 (stereo not drawn) [Example 697] |  |  | 63 to 68 °C | < 200 nM | < 200 nM |  |
| CNC(=O)c1ccc(-c2ccc3c(c2)CCC2(CCN(C4CCC4)CC2)O3)cc1C [Example 237] | < 200 nM | < 200 nM | 94.7 to 95.6 °C |  |  |  |
| Clc1ccc(Nc2ccc3c(c2)COC2(CCN(C4CCC4)CC2)O3)cc1 [Example 259] | < 200 nM | < 200 nM | 234 to 235 °C |  |  |  |
